We go through 2 compounds from US11491105B2, “Methods of treating microbial infections, including mastitis” (priority 2013, dated 2022).

The subject of series [1] is MRSA 9. As to the kind of experiment: Microdilution time-kill assay. The following applies: 1×MIC; increase evident after 24 hours. Type of series: cell-based, Staphylococcus aureus. The method, then: Following assessment of MIC and MBC results, two compounds were chosen for analysis using microdilution time-kill assays, LP 1369 and LP 6315 and these were compared to ampicillin. Time-kill assays were performed according to the M26-A guidelines of the CLSI, with modifications. The test compounds and ampicillin were serial diluted in CAMHB across the rows of a 96 well plate and a bacterial suspension was prepared and added in the same manner as the MIC testing. […] The time points assessed were 0, 1, 2, 4, 8, 12, 24 and 48 hours after the addition of the bacterial suspension to the wells. Each test compound was tested in triplicate while ampicillin was tested in duplicate and this test was independently repeated. The bacterial strains used for the microdilution assays were chosen based on bactericidal activity evident during MBC testing. One strain from each of the categories of Staphylococcus in the isolate collection (methicillin-sensitive, methicillin resistant and coagulase negative) were selected as well as the ATCC reference strain for comparison. These strains were strains MSS 1, MSS 11, MRSA 9 and the ATCC 49775 reference strain.

The conditions of series [2]: APVMA, December 2013, MRL Standard 2012; cited from earlier work.
In series [3] the test system is red blood cells. As to the kind of experiment: Eukaryotic cell toxicity testing (erythrocyte haemolysis). Type of series: cell-based. Particulars: 2% blood cell solution, 37° C., one hour. The method, then:
Erythrocyte haemolysis was used in order to test the toxicity of all five compounds to eukaryotic cells. Blood samples were washed using 9.1 g/L saline solution and centrifuged at 2500 rpm for 10 minutes. This process was repeated until cellular debris and partially lysed cells were removed from solution. 2 mL of the remaining blood cells were suspended in 98 mL of 9.1 g/L saline solution to produce a 2% blood cell solution, which was dispensed in 90 μL volumes into the wells of a 96 well plate. The compound solutions as well as chloramphenicol were prepared from stock solution to a concentration of 256 μg/mL (as described above). Chloramphenicol was used as a negative control for erythrocyte lysis while a ready to use solution of amphotericin B was used as a positive control. 90 μL of the compounds and controls were added to the final well in different rows. These compounds were serially diluted across the row in order to test the different concentrations of antimicrobials. Wells containing only 2% blood solution were also used to assess variation between readings from different columns on the 96 well plates. These tests were incubated at 37° C. for one hour and then assessed for lysis both visually and using a microplate reader to measure optical density at 600 nm wavelengths. Each test was performed in duplicate and then repeated in quadruplicate in order to ensure accuracy.

Consider `CO[C@@H]1[C@@H](OC)[C@H](C)[C@@](O)(CC(=O)O)O[C@H]1[C@H](C)[C@H]1O[C@@]2(CC[C@@](C)([C@H]3CC[C@@](C)([C@@H]4O[C@@H]([C@H]5O[C@](C)(O)[C@H](C)C[C@@H]5C)C[C@@H]4O[C@@H]4C[C@H](OC)[C@@H](OC)[C@H](C)O4)O3)O2)C[C@H](O)[C@H]1C.N` [LP 6315, Maduramicin], for which, in series [1], the “growth at 1×MIC” value is reported as “after 48 hours this growth was no longer observed”.

For `CC[C@@H](C(=O)[C@@H](C)[C@@H](O)[C@H](C)CCc1ccc(C)c(O)c1C(=O)O)[C@H]1O[C@](CC)([C@H]2CC[C@](O)(CC)[C@H](C)O2)C[C@@H]1C` [LP 1369, Lasalocid], in series [2], the “Maximum Residues level (MRL)” value is 0.010 mg/kg. For the same compound, in series [3], the “concentration at which lysis was most visually evident” value came out at 64 µg/mL and the “concentration range in which some lysis of cells was observed” value lay within 32 to 128 µg/mL.
